According to patent publication US20030032632A1, “Pharmaceutical aerosol formulation of salmeterol and fluticasone propionate” (priority 1999, published 2003):

What was measured:
[1] = Solubility in ethanol/HFA134a and ethanol/HFA227 mixtures; assay type: physicochemical; details: mixtures of ethanol/HFA134a and ethanol/HFA227
[2] = Chemical degradation on storage in ethanol/HFA134a solution; assay type: physicochemical

| Compound | solubility relative to racemic salmeterol xinafoate [1] | chemical degradation on storage [2] |
| --- | --- | --- |
| O=C(O)c1ccc2ccccc2c1O.OCc1cc(C(O)CNCCCCCCOCCCCc2ccccc2)ccc1O (stereo not shown) [R-salmeterol xinafoate] | significantly more soluble | – |
| CCC(=O)O[C@]1(C(=O)SCF)[C@H](C)C[C@H]2[C@@H]3C[C@H](F)C4=CC(=O)C=C[C@]4(C)[C@@]3(F)[C@@H](O)C[C@@]21C [fluticasone propionate, (6a, 11b, 16a, 17a)-6,9-difluoro-11-hydroxy-16-methyl-3-oxo-17-(1-oxopropoxy) androsta-1,4-diene-17-carbothioic acid, S-fluoromethyl ester] | – | quite stable to chemical degradation |
| OCc1cc(C(O)CNCCCCCCOCCCCc2ccccc2)ccc1O (stereo not drawn) [salmeterol base, 4-hydroxy-α^1-[[[6-(4-phenylbutoxy)hexyl]amino]methyl]-1,3-benzenedimethanol] | substantially more soluble | – |
| OCc1cc(C(O)CNCCCCCCOCCCCc2ccccc2)ccc1O (stereo not drawn) [salmeterol, 4-hydroxy-α^1-[[[6-(4-phenylbutoxy)hexyl]amino]methyl]-1,3-benzenedimethanol] | – | shows a tendency to exhibit chemical degradation |
